The values below come from PubChem BioAssay (NCI).

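Exposure lasted 48 hours, with cells grown in 96-well plates and compounds tested at five concentrations. TGI is the concentration that stops growth completely.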

Some test systems named below: PC-3 prostate; HL-60(TB) leukemia; OVCAR-8 ovarian; UACC-257 melanoma; NCI-H460 lung; A549 NSCLC; SK-MEL-2 melanoma; NCI-H522 lung; HCT-116 colon; 786-0 renal.
Holding throughout (test): NCI-60 cell line screen, 48 h

Consider `COc1cccc2cc(C(C)=O)c(=O)oc12`, for which the TGI in the assay on PC-3 prostate, in the assay with HL-60(TB) leukemia, in the assay with OVCAR-8 ovarian, with UACC-257 melanoma, in the assay on NCI-H460 lung and in the assay with A549 NSCLC was more than 100 µM in each case. The TGI with SK-MEL-2 melanoma, in the assay with NCI-H522 lung, in the assay with HCT-116 colon and in the assay on 786-0 renal was more than 100 µM in each case.

`CC1(C)CC(=O)c2c(nc3c(ccc4ccccc43)c2-c2ccc(NC(=O)CCCCC(=O)Nc3ccc(-c4c5c(nc6c4ccc4ccccc46)CC(C)(C)CC5=O)cc3)cc2)C1`: the TGI is more than 100 µM in the assay with PC-3 prostate; 77.6 µM with HL-60(TB) leukemia; 98.4 µM in the assay with OVCAR-8 ovarian; more than 100 µM in the assay with UACC-257 melanoma; 91.8 µM in the assay on NCI-H460 lung; more than 100 µM in the assay on A549 NSCLC. Further, the TGI with SK-MEL-2 melanoma was 92.6 µM; with NCI-H522 lung, more than 100 µM; in the assay with HCT-116 colon, 74.6 µM; with 786-0 renal, more than 100 µM.

`COc1ccc2nc3n(c2c1)C(=O)c1ccccc1-3`: the TGI with PC-3 prostate, in the assay with HL-60(TB) leukemia, in the assay with OVCAR-8 ovarian, in the assay with UACC-257 melanoma, in the assay with NCI-H460 lung and in the assay with A549 NSCLC was more than 100 µM throughout. The TGI in the assay on SK-MEL-2 melanoma, with NCI-H522 lung, in the assay with HCT-116 colon and in the assay on 786-0 renal was more than 100 µM throughout.
